# Key:
# [1] = target: T1, human recombinant V600E mutant BRAF (Homo sapiens, UniProt P15056, V600E); test: BRAF^V600E Inhibition Assay (TR-FRET); format: biochemical
# T1 construct: purchased BPS Bioscience 40533
# Method: (§1) Activity of human recombinant V600E mutant BRAF were assessed in vitro using time-resolved fluorescence resonance energy transfer (TR-FRET) assay. The assay was performed according to the kit instructions. Briefly, the V600E mutant BRAF enzyme (BPS Bioscience, cat #40533) was diluted to 0.027 ng/μL using the 1× kinase buffer A (Life Tech, cat #PV6135, 5× dilution with H2O); the Fluorescein labeled-MAP2K1 (Life Tech, Cat #PV4812) was diluted to 0.5 μM; ATP (Life Tech, cat #PV3227) was diluted to 20 μM; 2.5 μl of each diluted reagent was added to a 384-well (PerkinElmer, ProxiPlate-384 Plus, 6008280) plate and mixed together; 2.54, serial diluted compounds were added into the mixture. 104, 400-fold diluted LanthaScreen Tb-pMAP2K1 (pSer217/221) antibody (Life Tech, cat #PV4817) was then added to each kinase reaction. The reactions were incubated at Room Temperature for 1 hour. The plate was then read on PHERAstar FSX using 340/490/520 module. Inhibition data were calculated by comparison to vehicle control wells for 0% inhibition and non-stimulated control wells for 100% inhibition. Dose response curves were then generated to determine the concentration required to suppress 50% of enzymatic response (IC50) as derived by non-linear regression analysis using GraphPad Prism.
# [2] = tested on: NCI-H358 (KRAS^G12C) non-small cell lung cancer cell; test: NCI-H358 Cancer Cell Growth Inhibition Assay (CellTiter-Glo); format: cell-based, human; details: for GI50: Homo sapiens, 72 h, NCI-H358 cells, incubated for 3 days, CellTiter-Glo
# Method: Activity of human NCI-H358 (KRAS^G12C) non-small cell lung cancer cell growth inhibition was assessed in vitro using CellTiter-Glo® Luminescent Cell Viability Assay. The assay was performed according to the kit instructions (Promega, cat #G7570). Briefly, NCI-H358 cells (ATCC, #CRL-5807) were seeded in 96-well plates at a density of 2,500 cells/well in and cells were cultured overnight in a humidified, 5% CO2 cell culture incubator at 37° C. 10 μL serial diluted compounds were added into each cell-culture well and incubated for 3 days. 100 μL CellTiter-Glo® Reagent was added into each well. The reactions were incubated at Room Temperature for 10 minutes, and luminescence signals were recorded on a Tecan Luminescence Plate Reader. Inhibition data were calculated by comparison to vehicle control wells for 0% inhibition and non-stimulated control wells for 100% inhibition. Dose response curves were then generated to determine the concentration required to suppress 50% of cellular growth response (GI50) as derived by non-linear regression analysis using GraphPad Prism.
# [3] = tested on: A375 (BRAF^V600E) malignant melanoma cell; test: A375 Cell Growth Inhibition Assay (CellTiter-Glo); format: cell-based, human; details: for GI50: Homo sapiens, A-375, 72 h, A375 cells, incubated for 3 days, CellTiter-Glo
# Method: Activity of human A375 (BRAF^V600E) malignant melanoma cell growth inhibition was assessed in vitro using CellTiter-Glo® Luminescent Cell Viability Assay. The assay was performed according to the kit instructions (Promega, cat #G7570). Briefly, A375 cells (ATCC, #CRL-1619™) were seeded in 96-well plates at a density of 2,500 cells/well in 90 and cells were cultured overnight in a humidified, 5% CO2 cell culture incubator at 37° C. 10 μL serial diluted compounds were added into each cell-culture well and incubated for 3 days. […] Reagent was added into each well. The reactions were incubated at Room Temperature for 10 minutes, and luminescence signals were recorded on a Tecan Luminescence Plate Reader. Inhibition data were calculated by comparison to vehicle control wells for 0% inhibition and non-stimulated control wells for 100% inhibition. Dose response curves were then generated to determine the concentration required to suppress 50% of cellular growth response (GI50) as derived by non-linear regression analysis using GraphPad Prism.
# [4] = tested on: Calu6 (KRAS^Q16K) cancer cell; test: Calu6 Cancer Cell Growth Inhibition Assay (CellTiter-Glo); format: cell-based, human; details: for GI50: Homo sapiens, Calu-6, 72 h, Calu6 cells, incubated for 3 days, CellTiter-Glo
# Method: Activity of human Calu6 (KRAS^Q16K) cancer cell growth inhibition was assessed in vitro using CellTiter-Glo® Luminescent Cell Viability Assay. The assay was performed according to the kit instructions (Promega, cat #G7570). Briefly, Calu6 cells (ATCC, #HTB-56™) were seeded in 96-well plates at a density of 2,500 cells/well in 90 and cells were cultured overnight in a humidified, 5% CO2 cell culture incubator at 37° C. 10 μL serial diluted compounds were added into each cell-culture well and incubated for 3 days. 100 μL CellTiter-Glo® Reagent was added into each well. The reactions were incubated at Room Temperature for 10 minutes, and luminescence signals were recorded on a Tecan Luminescence Plate Reader. Inhibition data were calculated by comparison to vehicle control wells for 0% inhibition and non-stimulated control wells for 100% inhibition. Dose response curves were then generated to determine the concentration required to suppress 50% of cellular growth response (GI50) as derived by non-linear regression analysis using GraphPad Prism.
# human recombinant cRAF = human recombinant cRAF (Homo sapiens, UniProt P04049); test: cRAF Inhibition Assay (TR-FRET); format: biochemical
# Chain of human recombinant cRAF (P04049 whole entry Y340D/Y341D, form open): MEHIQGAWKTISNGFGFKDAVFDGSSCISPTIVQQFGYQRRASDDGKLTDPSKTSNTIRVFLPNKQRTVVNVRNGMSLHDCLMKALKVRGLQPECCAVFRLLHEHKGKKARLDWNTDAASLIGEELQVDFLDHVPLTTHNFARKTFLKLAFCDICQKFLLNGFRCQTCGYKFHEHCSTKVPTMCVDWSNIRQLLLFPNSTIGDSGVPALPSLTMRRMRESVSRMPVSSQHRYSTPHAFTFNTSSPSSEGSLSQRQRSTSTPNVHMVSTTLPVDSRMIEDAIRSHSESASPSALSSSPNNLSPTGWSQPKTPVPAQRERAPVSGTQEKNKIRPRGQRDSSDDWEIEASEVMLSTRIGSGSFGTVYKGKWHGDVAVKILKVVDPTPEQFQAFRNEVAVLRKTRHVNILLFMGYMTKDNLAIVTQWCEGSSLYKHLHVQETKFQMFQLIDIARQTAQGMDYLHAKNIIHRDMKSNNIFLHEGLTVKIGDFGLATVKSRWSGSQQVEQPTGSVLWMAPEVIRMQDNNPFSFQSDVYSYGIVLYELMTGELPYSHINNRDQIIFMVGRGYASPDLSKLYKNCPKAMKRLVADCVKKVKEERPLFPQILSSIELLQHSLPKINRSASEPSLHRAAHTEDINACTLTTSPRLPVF
# Method: as §1, with “cRAF” for “V600E mutant BRAF”, “#40008)” for “#40533)”, “2.54,” for “2.5 μl”, “384-well plate” for “384-well”, “6008280)” for “6008280) plate”, “compound” for “compounds”
# human recombinant BRAF = target: T2, human recombinant BRAF (Homo sapiens, UniProt P15056); test: BRAF^WT Inhibition Assay (TR-FRET); format: biochemical
# T2 construct: purchased BPS Bioscience 40065
# T2 sequence (P15056 whole entry): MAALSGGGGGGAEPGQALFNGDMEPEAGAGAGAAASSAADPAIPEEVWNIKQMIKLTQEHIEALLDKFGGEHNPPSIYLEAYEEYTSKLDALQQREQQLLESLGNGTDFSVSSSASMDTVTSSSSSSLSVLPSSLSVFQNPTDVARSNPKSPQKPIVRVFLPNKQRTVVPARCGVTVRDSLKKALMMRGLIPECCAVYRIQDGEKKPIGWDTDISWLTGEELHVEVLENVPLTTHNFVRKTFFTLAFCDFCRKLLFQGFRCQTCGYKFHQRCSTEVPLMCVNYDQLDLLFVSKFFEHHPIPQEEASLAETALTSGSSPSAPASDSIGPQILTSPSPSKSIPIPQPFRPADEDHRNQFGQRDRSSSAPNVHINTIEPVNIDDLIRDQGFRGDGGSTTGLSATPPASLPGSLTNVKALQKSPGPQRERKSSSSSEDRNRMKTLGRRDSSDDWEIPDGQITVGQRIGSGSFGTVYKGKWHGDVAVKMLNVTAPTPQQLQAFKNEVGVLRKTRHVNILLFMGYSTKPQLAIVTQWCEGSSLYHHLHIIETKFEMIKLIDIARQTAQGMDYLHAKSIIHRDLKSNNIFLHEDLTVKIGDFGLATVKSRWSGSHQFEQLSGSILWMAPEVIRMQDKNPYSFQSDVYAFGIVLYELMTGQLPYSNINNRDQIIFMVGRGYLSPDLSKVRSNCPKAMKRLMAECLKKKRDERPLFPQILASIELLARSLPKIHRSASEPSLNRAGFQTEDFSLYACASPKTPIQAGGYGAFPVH
# Method: Activity of human recombinant BRAF were assessed in vitro using time-resolved fluorescence resonance energy transfer (TR-FRET) assay. The assay was performed according to the kit instructions. Briefly, the BRAF enzyme (BPS Bioscience, cat #40065) was diluted to 0.027 ng/μL using the 1× kinase buffer A (Life Tech, cat #PV6135, 5× dilution with H2O); the Fluorescein labeled-MAP2K1 (Life Tech, Cat #PV4812) was diluted to 0.5 μM; ATP (Life Tech, cat #PV3227) was diluted to 20 μM; 2.54, of each diluted reagent was added to a 384-well plate (PerkinElmer, ProxiPlate-384 Plus, 6008280) and mixed together; 2.54, serial diluted compound were added into the mixture. 104, 400-fold diluted LanthaScreen Tb-pMAP2K1 (pSer217/221) antibody (Life Tech, cat #PV4817) was then added to each kinase reaction. The reactions were incubated at Room Temperature for 1 hour. The plate was then read on PHERAstar FSX using 340/490/520 module. Inhibition data were calculated by comparison to vehicle control wells for 0% inhibition and non-stimulated control wells for 100% inhibition. Dose response curves were then generated to determine the concentration required to suppress 50% of enzymatic response (IC50) as derived by non-linear regression analysis using GraphPad Prism.
# RAF Kinase = details: background statement on the reference compound; cited from earlier work
# T1 sequence (P15056 whole entry V600E): as the sequence (P15056 whole entry) above, with V600E counted along it
smiles,measurement,setting,value
"Cc1ccc(NC(=O)c2ccc3c(c2)OC(F)(F)O3)cc1-c1cc(OCCO)nc(N2CCOCC2)c1 [Example 1, 2,2-difluoro-N-(3-(2-(2-hydroxyethoxy)-6-morpholinopyridin-4-yl)-4-methylphenyl)benzo[d][1,3]dioxole-5-carboxamide]",IC50,[1],0.0325 µM
same,"cellular potency, H358",[2]; H358 cancer cell line,excellent cellular potency
same,cell growth inhibition in H358 cancer line compared to LXH254,"[2]; H358 cancer line, compared to LXH254",better or similar cell growth inhibition
same,GI50,[2],0.48 µM
same,"cellular potency, A375",[3]; A375 cancer cell line,excellent cellular potency
same,GI50,[3],0.15 µM
same,"cellular potency, Calu6",[4]; Calu6 cancer cell line,excellent cellular potency
same,GI50,[4],0.064 µM
same,IC50,human recombinant cRAF,0.015 µM
same,IC50,human recombinant BRAF,0.087 µM
"Cc1ccc(NC(=O)c2ccnc(C(F)(F)F)c2)cc1-c1cc(OCCO)nc(N2CCOCC2)c1 [LXH254, reference compound]",potency for bRAF and cRAF,RAF Kinase,nanomolar potency
same,IC50,[1],0.043 µM
same,GI50,[2],3 µM
same,GI50,[3],0.89 µM
same,GI50,[4],0.92 µM
same,IC50,human recombinant cRAF,0.013 µM
same,IC50,human recombinant BRAF,0.038 µM
